Like-named read-outs stand apart in the source and are kept apart here. Where no end group is shown, it is not given here.
Experiments:
Ca^2+/CaM [1] = molecular target: T1, Ca^2+/CaM (Homo sapiens, UniProt P0DP23); conditions: reference not given; earlier FasDD study of the authors: ref [32]; read-out: Kd to Ca^2+/CaM, full-length FasDD; cited from earlier work
T1 construct: made in house
Source text: We have also shown that both lobes of Ca^2+/CaM are important for FasDD binding. […] Our attempt to identify the interaction regions by ... || To identify the Ca^2+/CaM-binding regions in large proteins is not a simple task. To predict the Ca^2+/CaM-binding site, a web-based tool is often used to provide favorable scores based on multiple criteria including hydropathy, α-helical propensity, hydrophobic residue content, residue charge, residue weight, helical class and occurrence of particular residues.[39] However, this method can still provide biased results.

Ca^2+/CaM [2] = molecular target: T1, Ca^2+/CaM; test: NMR titration (2D 1H-15N HSQC) of 15N-labeled Ca^2+/CaM with FasDD peptides; format: binding
Protocol: (§1) NMR data were collected at 35°C on a Bruker Avance II (700 MHz ^1H) spectrometer equipped with a cryogenic triple-resonance probe, processed with NMRPIPE [35] and analyzed with NMRVIEW [36] or CCPN Analysis. […] For signal assignments of the complexes, ^13C-, ^15N-, or ^13C-/^15N-labeled Ca^2+/CaM at ~400–500 μM was mixed with unlabeled Fas-Pep1 (in 100% DMSO-d6) or Fas-Pep2 at 1.5:1 peptide:Ca^2+/CaM. […] The backbone atom resonances of Ca^2+/CaM complexes with Fas-Pep1 and Fas-Pep2 were assigned using HNCA, HN(CO)CA, HNCACB, HNCO, HN(CO)CACB and ^15N-edited NOESY-HSQC and TOCSY-HSQC experiments. These experiments have been also collected on ^15N-, or ^13C-/^15N-labeled Fas-Pep2 in complex with unlabeled Ca^2+/CaM to confirm the α-helical character of Fas-Pep2 when bound to Ca^2+/CaM. The chemical shifts of Ca^2+/CaM-bound Fas-Pep2 were used to predict its order parameters and secondary structure content in TALOS+.[38] Combined ^1H-^15N chemical shift changes were calculated as ΔδHN = [(ΔδH)^2+(ΔδN/5)^2]^1/2, where ΔδH and ΔδN are the ^1H and ^15N chemical shift changes, respectively. Kd values were calculated by non-linear least-square fitting algorithm in Origin software (OriginLab, Northampton, MA) using the equation: ΔδHN=ΔδHN^max((Kd+L0+P0)−((Kd+L0+P0)^2−4*P0*L0)^0.5)/(2*P0) where ΔδHN^max is the chemical shift change between complex and free protein, L0 total concentration of ligand, and P0 total concentration of protein.
To gain insights into the molecular elements of Ca^2+/CaM–FasDD interaction and to identify the interaction interface, we have utilized NMR chemical shift perturbation (CSP) as detected in ^1H-^15N heteronuclear single quantum coherence (HSQC) spectra. These experiments not only allow for identification of residues involved in binding but can also provide information on the induced conformational changes within proteins. 2D ^1H-^15N HSQC data obtained for a uniformly ^15N-labeled Ca^2+/CaM upon titration with unlabeled Fas-Pep1 are shown in Fig 5. Addition of substoichiometric amounts of Fas-Pep1 (0.5:1 peptide:Ca^2+/CaM) led to a decrease in intensity for a significant number of ^1H-^15N resonances accompanied by appearance of several new signals, consistent with a slow exchange on the NMR scale between the free and bound forms of Ca^2+/CaM. A steady decrease in intensity for the original ^1H-^15N signals and increase in intensity of the new signals was clearly observed with further addition of Fas-Pep1. Spectral changes ceased upon completion of peptide titration at 1.5:1 Fas-Pep1:Ca^2+/CaM ratio when only the new set of signals was present (Fig 5). […]
Only residues 214–227 have been detected in the x-ray structure of Ca^2+/CaM bound to FasDD(214–238); no electron density has been detected for residues 228–238.[40] […]

Ca^2+/CaM-C = molecular target: T2, Ca^2+/CaM-C (Homo sapiens, UniProt P0DP23); test: NMR titration (2D 1H-15N HSQC) of isolated C-terminal lobe; format: binding; conditions: NMR HSQC titration, one-site model, 35°C, 50 mM Tris-d11 (pH 7.0), 100 mM NaCl, 5 mM CaCl2; 15N-Ca^2+/CaM-C 150 μM
T2 construct: ^15N-labled samples of the isolated Ca^2+/CaM-N and Ca^2+/CaM-C domains; made in house
Protocol: as §1, with “The chemical shifts of Ca^2+/CaM-bound Fas-Pep2 were used to predict its order parameters and secondary structure content in TALOS+.[38]” left out, “protein. […]” for “protein.”

Ca^2+/CaM-N = molecular target: T3, Ca^2+/CaM-N (Homo sapiens, UniProt P0DP23); test: NMR titration (2D 1H-15N HSQC) of isolated N-terminal lobe; format: binding; conditions: NMR HSQC titration, one-site model, 35°C, 50 mM Tris-d11 (pH 7.0), 100 mM NaCl, 5 mM CaCl2; 15N-Ca^2+/CaM-N 150 μM
T3 construct: ^15N-labled samples of the isolated Ca^2+/CaM-N and Ca^2+/CaM-C domains; made in house
Protocol: as §1, with “The chemical shifts of Ca^2+/CaM-bound Fas-Pep2 were used to predict its order parameters and secondary structure content in TALOS+.[38]” left out, “protein. […]” for “protein.”

Ca^2+/CaM [3] = molecular target: T1, Ca^2+/CaM; test: Isothermal titration calorimetry (ITC), Ca^2+/CaM titrated into peptide; format: binding; conditions: Ca^2+/CaM 450 μM into 25 μM Fas-Pep1 (25°C) or 195 μM into 17 μM Fas-Pep2 (35°C); 50 mM HEPES (pH 7.0), 100 mM NaCl, 5 mM CaCl2; single set of identical sites; three replicates typically
Protocol: Thermodynamic parameters of Ca^2+/CaM binding to Fas-Pep1 and Fas-Pep2 peptides were determined using an Auto-iTC200 microcalorimeter (Malvern Instruments). […] Heat of reaction of Ca^2+/CaM was measured over 19 injections at 25°C for Fas-Pep1 or 35°C for Fas-Pep2. Heat of dilution was measured by titrating Ca^2+/CaM into buffer. Data analysis was performed using the Microcal Origin package (ver. 8.1). Baseline corrections were performed by subtracting heat of dilution from the raw Ca^2+/CaM-peptide titration data. Binding curves were analyzed and dissociation constants (Kd) were determined by nonlinear least-square fitting of the baseline-corrected data. The formula used to fit the data as one binding site is: ΔQ(i)=Q(i)+(dVi/Vo)[(Q(i)+Q(i−1))/2]–Q(i–1) where ΔQ(i) is the heat released at i^th injection, Q(i) is the total heat content of the solution, dVi is injection volume, and Vo is total volume. Three replicate titration experiments were typically performed for each peptide.
Although it is recognized that the most frequent mechanism of CaM binding to target proteins involves the hydrophobic surfaces on the N- and C-terminal lobes,[23] electrostatic interactions also contribute to the formation and stabilization of CaM-protein complexes since CaM is acidic and CaM-binding motifs are often basic.[44, 45] The thermodynamic parameters of binding and the relative contribution of hydrophobic vs. electrostatic factors are often assessed by ITC methods, yielding various parameters such as dissociation constant (Kd), stoichiometry (n), enthalpy change (ΔH°) and entropy change (ΔS°). The thermodynamic parameters of Ca^2+/CaM binding to Fas-Pep1 and Fas-Pep2 were assessed by ITC.

FasDD: intracellular death domain of Fas
Kd (Ca^2+/CaM [1]): ~2 µM

MTLSQVKGFVRKNGV [FasDD(224–238), synthetic FasDD peptide spanning residues 224–238; …]
binding to Ca^2+/CaM by CSPs (Ca^2+/CaM [2]; 1H-15N HSQC titration, 15N-Ca^2+/CaM 100 μM, 35°C, pH 7.0): Numerous ^1H-^15N signals exhibited significant CSPs in the HSQC spectra (S7 Fig), indicating direct binding | lobe preference on Ca^2+/CaM (Ca^2+/CaM [2]; 1H-15N HSQC, 15N-Ca^2+/CaM 100 μM): appears to bind to the C-terminal domain of Ca^2+/CaM | NMR exchange regime with Ca^2+/CaM (Ca^2+/CaM [2]; 1H-15N HSQC, 15N-Ca^2+/CaM 100–150 μM, 35°C, pH 7.0): fast exchange

SDVDLSKYITTIAGVMTLSQVKGFVRKNGVN [Fas-Pep1]
Kd (Ca^2+/CaM-C): 76 µM | Kd (Ca^2+/CaM-N): ~268 µM | Kd (Ca^2+/CaM [3]): 0.3 µM
